Tested on: hamster sebocytes
Experiment: Sebocyte culture test (sebum synthesis amount, Oil Red O staining)
Assay type: cell-based, golden hamster
Conditions: concentration of 1×10^−5 M; microscopic observation and absorbance measurement; medium with 1×10^−6M testosterone; about 2 weeks
Description: 1. The test was carried out using a hamster sebocyte culture kit KB-1000 (manufactured by KURABO […] LTD.).
The sebocyte cell derived from the auricula of a normal golden hamster was inoculated in a 24-well plate in a density of 5.0×10^4 cells/well. During the test, the cell was cultured in medium containing testosterone in a concentration of 1×10^−6M.
2. The cell was cultured for several days until confluent, and the medium was exchanged with medium containing the test sample. The medium was exchanged with sample medium every other day and the culture was continued for about 2 weeks.
In this test, cow's lactoferrin was prepared to be used as the lactoferrin, and spironolactone was used as a control.
3. Then, using a sebum synthesis assay kit SE-3001 (manufactured by KURABO […], LTD.), a WST-8 solution was added to each well and incubated for 30 minutes at 37° C. The supernatant was assayed at a wavelength of 450 nm, and the number of viable cell was counted.
4. Further, the supernatant was stained with Oil Red O and observed under a microscope while extracted with 100% isopropanol and measured at a wavelength of 520 nm for the lipid synthesis amount. […]
Comparison of lipid synthesis amount per cell=absorbance B/absorbance A
Absorbance A: cell number measured value (450 nm)
Absorbance B: lipid synthesis amount measured value (520 nm)

`CC(=O)S[C@@H]1CC2=CC(=O)CC[C@]2(C)[C@H]2CC[C@@]3(C)[C@@H](CC[C@@]34CCC(=O)O4)[C@H]12` [spironolactone, reference compound] was tested, and the “sebum synthesis amount compared with the control” value was “decreased sebum synthesis amount compared with the control”.
